Measured values reported in US20230364079A1, “COMPOUND AS BRAIN-PERMEABLE BTK OR HER2 INHIBITOR, PREPARATION METHOD THEREFOR, AND USE THEREOF” (CHENGDU HYPERWAY PHARMACEUTICALS CO., LTD., priority 2020, published 2023).

Biological target: BTK wild-type kinase (Homo sapiens (Human), UniProt Q06187)
Assay: BTK kinase activity inhibition test in vitro (Caliper EZ Reader)
Type: biochemical
Procedure: In the tests on the activity of inhibiting BTK and HER2 kinase in vitro in the examples of the present disclosure, powder of the compound was dissolved in 100% DMSO to prepare a 10 mM stock solution and stored at-20° C. in the dark. […] In addition, the compounds were subjected to experiments such as liver microsome metabolic stability, rat PK, rat brain penetration rate, and drug efficacy model in the examples of the present disclosure.
Compound powders were dissolved in 100% DMSO to make 10 mM stock solutions, which were stored at -20° C. in the dark.
2: Kinase Reaction Process
(1) Preparation of 1 × Kinase buffer.
(5) After centrifugation at 1000 rpm for 30 seconds, the reaction plate was shaken to mix well and incubated at room temperature for 10 min.
(6) A 5/3-fold final concentration of a mixed solution of ATP and Kinase substrate 2 was prepared with 1 × Kinase buffer.
(7) 15 µL of the mixed solution of ATP and substrate with 5/3-fold final concentration was added to start the reaction.
(8) The 384-well plate was centrifuged at 1000 rpm for 30 seconds, shaken to mix well, and incubated at room temperature for 10 min.
(9) 30 µL of a stop solution was added to stop the kinase reaction, and after centrifugation at 1000 rpm for 30 seconds, the plate was shaken to mix well;
(10) The conversion rate was read with Caliper EZ Reader.
where Conversion%_sample indicates the conversion rate reading of the sample; Conversion%_min is the average reading of the negative control wells, representing the conversion rate reading of the wells without enzyme activity; Conversion%_max is the average reading of the ratio of the positive control wells, representing the conversion rate reading of the wells without compound inhibition.
Dose-Response Curve Fitting
With the log value of the concentration as the X-axis, and the percentage inhibition rate as the Y-axis, the dose-effect curve was fitted using the log(inhibitor) vs. response-Variable slope of the analysis software GraphPad Prism 5, so as to determine the IC50 value of each compound on the enzyme activity.
The calculation formula was: […]

Chain of BTK wild-type kinase (Q06187 whole entry): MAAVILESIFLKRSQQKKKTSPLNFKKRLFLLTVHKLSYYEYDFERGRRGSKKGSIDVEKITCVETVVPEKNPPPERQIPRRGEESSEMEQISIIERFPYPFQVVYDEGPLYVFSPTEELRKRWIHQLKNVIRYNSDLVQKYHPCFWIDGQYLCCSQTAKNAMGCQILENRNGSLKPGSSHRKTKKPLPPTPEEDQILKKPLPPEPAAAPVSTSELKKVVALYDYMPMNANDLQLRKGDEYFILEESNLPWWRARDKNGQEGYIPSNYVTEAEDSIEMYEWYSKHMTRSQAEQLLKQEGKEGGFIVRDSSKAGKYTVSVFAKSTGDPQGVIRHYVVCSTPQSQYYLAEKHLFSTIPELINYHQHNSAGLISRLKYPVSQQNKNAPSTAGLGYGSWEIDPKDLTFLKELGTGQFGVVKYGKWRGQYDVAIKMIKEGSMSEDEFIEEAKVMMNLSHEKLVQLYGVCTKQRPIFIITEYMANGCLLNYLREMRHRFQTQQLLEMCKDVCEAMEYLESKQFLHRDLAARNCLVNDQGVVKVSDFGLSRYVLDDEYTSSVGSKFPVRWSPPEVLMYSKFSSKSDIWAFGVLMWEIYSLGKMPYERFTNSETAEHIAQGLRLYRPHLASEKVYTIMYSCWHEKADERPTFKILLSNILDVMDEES

| IC50 [nM] | SMILES |
| --- | --- |
| < 5 | COc1cccc(Oc2ccc(-c3nc(C4CCC(CO)OC4)n4ccnc(N)c34)cc2)c1C#N (single isomer, unassigned) [Compound 89-P2] |
| < 5 | Nc1nccn2c(C3CCC(CO)OC3)nc(-c3ccc(C(=O)Nc4cc(C(F)(F)F)ccn4)cc3)c12 (single isomer, unassigned) [Compound 109-P2] |
| 5 to 20 | Nc1nccn2c(C3CC[C@H](CO)OC3)nc(-c3ccc(C(=O)Nc4ccccn4)cc3F)c12 (stereo partly shown) [Compound 1-A] |
| 20 to 100 | Nc1ncc(Cl)n2c(C3CCC(CO)OC3)nc(-c3ccc(C(=O)Nc4ccccn4)cc3)c12 (stereo not shown) [Compound 3] |
| 20 to 100 | Nc1ncc(Cl)n2c(C3CCC(CO)OC3)nc(-c3ccc(C(=O)Nc4ccccn4)cc3F)c12 (stereo not shown) [Compound 4] |
| < 5 | COc1cccc(Oc2ccc(-c3nc(C4CCC(CO)OC4)n4ccnc(N)c34)c(F)c2)c1F (stereo not shown) [Compound 10] |
| 5 to 20 | Nc1nccn2c(C3CCC(CO)OC3)nc(-c3ccc(Oc4cccc(OC5CC5)c4F)cc3)c12 (stereo not shown) [Compound 15] |
| 20 to 100 | Nc1nccn2c(C3CCC(CO)OC3)nc(-c3ccc(Oc4c(F)c(F)cc(F)c4F)cc3F)c12 (stereo not shown) [Compound 18] |
| 5 to 20 | COc1c(F)ccc(Oc2ccc(-c3nc(C4CCC(CO)OC4)n4ccnc(N)c34)cc2)c1F (stereo not shown) [Compound 20] |
| 20 to 100 | COc1cc(Oc2ccc(-c3nc(C4CCC(CO)OC4)n4ccnc(N)c34)cc2)ccc1F (stereo not shown) [Compound 21] |
| 20 to 100 | Nc1nccn2c(C3CCC(CO)OC3)nc(-c3ccc(Oc4cccc(C5CC5)c4F)cc3)c12 (stereo not shown) [Compound 22] |
| 100 to 1000 | Nc1nccn2c(C3CCC(CO)OC3)nc(-c3ccc(Oc4cccc(OCC5CC5)c4F)cc3)c12 (stereo not shown) [Compound 23] |
| 20 to 100 | Nc1nccn2c(C3CCC(CO)OC3)nc(-c3ccc(Oc4ccc(C5CC5)cc4F)cc3)c12 (stereo not shown) [Compound 25] |
| 20 to 100 | CC(O)(c1ccccc1)c1ccc(-c2nc(C3CCC(CO)OC3)n3ccnc(N)c23)cc1 (stereo not shown) [Compound 27] |
| 20 to 100 | CNC(=O)c1cccc(Oc2ccc(-c3nc(C4CCC(CO)OC4)n4ccnc(N)c34)cc2)c1F (stereo not shown) [Compound 28] |
| 5 to 20 | COc1cccc(Oc2ccc(-c3nn(C4CCC(CO)OC4)c4ncnc(N)c34)cc2)c1F (stereo not shown) [Compound 29] |
| 5 to 20 | COc1cccc(Oc2ccc(-c3nn(C4CCC(CO)OC4)c4ccnc(N)c34)cc2)c1F (stereo not shown) [Compound 30] |
| > 1000 | Cc1cc(NC(=O)c2ccc(C3CC3)cc2F)c(F)cc1-c1nc(C2CCC(CO)OC2)n2ccnc(N)c12 (stereo not shown) [Compound 31] |
| 5 to 20 | Nc1nccn2c(C3CCC(CO)OC3)nc(-c3ccc(Oc4ccccc4)cc3Cl)c12 (stereo not shown) [Compound 32] |
| 20 to 100 | COc1ccccc1C(=O)NCc1ccc(-c2nc(C3CCC(CO)OC3)n3ccnc(N)c23)cc1 (stereo not shown) [Compound 33] |
| 5 to 20 | Nc1nccn2c(C34CCC(CO)(CC3)OC4)nc(-c3ccc(C(=O)Nc4ccccn4)cc3F)c12 [Compound 35] |
| 5 to 20 | Nc1ncc(Cl)n2c(C34CCC(CO)(CC3)OC4)nc(-c3ccc(C(=O)Nc4ccccn4)cc3F)c12 [Compound 36] |
| < 5 | COc1cccc(Oc2ccc(-c3nc(C45CCC(CO)(CC4)OC5)n4ccnc(N)c34)cc2)c1F [Compound 37] |

| IC50 [nM] | SMILES |
| --- | --- |
| 5 to 20 | COc1cccc(Oc2ccc(-c3nc(C45CCC(CO)(CC4)OC5)n4ccnc(N)c34)c(F)c2)c1F [Compound 38] |
| < 5 | COc1cccc(Oc2ccc(-c3nc(C45CCC(CO)(CC4)OC5)n4c(Cl)cnc(N)c34)cc2)c1F [Compound 39] |
| 5 to 20 | Nc1nccn2c(C34COC(CO)(C3)C4)nc(-c3ccc(Oc4cccc(OC(F)(F)F)c4F)cc3F)c12 [Compound 40] |
| 5 to 20 | Nc1ncc(Cl)n2c(C34COC(CO)(C3)C4)nc(-c3ccc(Oc4cccc(OC(F)(F)F)c4F)cc3F)c12 [Compound 41] |
| 20 to 100 | Nc1nccn2c(C34COC(CO)(C3)C4)nc(-c3ccc(C(=O)Nc4ccccn4)cc3)c12 [Compound 42] |
| 20 to 100 | Nc1nccn2c(C34COC(CO)(C3)C4)nc(-c3ccc(C(=O)Nc4ccccn4)cc3F)c12 [Compound 43] |
| 20 to 100 | Nc1ncc(Cl)n2c(C34COC(CO)(C3)C4)nc(-c3ccc(C(=O)Nc4ccccn4)cc3F)c12 [Compound 44] |
| 5 to 20 | COc1cccc(Oc2ccc(-c3nc(C45COC(CO)(C4)C5)n4ccnc(N)c34)cc2)c1F [Compound 45] |
| 100 to 1000 | Nc1nccn2c(C3CCC(CO)OC3)nc(-c3ccc(NC(=O)c4ccc(C5CC5)cc4F)cc3)c12 (stereo not shown) [Compound 46] |
| 100 to 1000 | CC(N)(c1ccccc1)c1ccc(-c2nc(C3CCC(CO)OC3)n3ccnc(N)c23)cc1 (stereo not shown) [Compound 47] |
| 20 to 100 | Nc1nccn2c(C3CCC(CO)OC3)nc(-c3ccc(Nc4ccccc4)cc3)c12 (stereo not shown) [Compound 48] |
| > 1000 | C[C@](N)(c1ccc(F)cc1)c1cnc(-c2nc(C3CCC(CO)OC3)n3ccnc(N)c23)nc1 (stereo partly shown) [Compound 49] |
| 20 to 100 | COc1cccc(Oc2ccc(-c3nc(C4CCC(C5(O)CC5)OC4)n4ccnc(N)c34)cc2)c1F (stereo not shown) [Compound 50] |
| 20 to 100 | COc1cccc(Oc2ccc(-c3nc(C4CCC(C(C)(C)O)OC4)n4ccnc(N)c34)cc2)c1F (stereo not shown) [Compound 51] |
| 5 to 20 | COc1cccc(Oc2ccc(-c3nn(C4CCC(CO)OC4)c4c(Cl)cnc(N)c34)cc2)c1F (stereo not shown) [Compound 52] |
| 20 to 100 | Nc1ncnc2c1c(-c1ccc(Oc3ccccc3)cc1)nn2C1CCC(CO)OC1 (stereo not shown) [Compound 53] |
| 20 to 100 | Nc1ncnc2c1c(-c1ccc(Oc3ccccc3)cc1F)nn2C1CCC(CO)OC1 (stereo not shown) [Compound 54] |
| 20 to 100 | Nc1nccn2c(C3CCC(CO)OC3)nc(-c3ccc(OCc4ccccc4)cc3)c12 (stereo not shown) [Compound 55] |
| > 1000 | Nc1nccn2c(C3CCC(CO)OC3)nc(-c3cnc(Nc4cccc(OC(F)(F)F)c4)nc3)c12 (stereo not shown) [Compound 56] |
| 20 to 100 | Nc1nccc2c1c(-c1ccc(C(=O)Nc3ccccn3)cc1F)nn2C1CCC(CO)OC1 (stereo not shown) [Compound 57] |
| > 1000 | COc1cccc(NC(=O)c2ccc(-c3nc(C4CCC(CO)OC4)n4ccnc(N)c34)cc2)n1 (stereo not shown) [Compound 58] |
| > 1000 | Nc1nccn2c(C3CCC(CO)OC3)nc(-c3ccc(Oc4cccnc4F)cc3)c12 (stereo not shown) [Compound 59] |
| 5 to 20 | COc1cccc(C(=O)c2ccc(-c3nc(C4CCC(CO)OC4)n4ccnc(N)c34)cc2)c1F (stereo not shown) [Compound 61] |

| IC50 [nM] | SMILES |
| --- | --- |
| 20 to 100 | Nc1nccn2c(C3CCC(CO)OC3)nc(-c3ccc(C(=O)c4ccccc4Cl)cc3)c12 (stereo not shown) [Compound 62] |
| 100 to 1000 | Nc1nccn2c(C3CCC(CO)OC3)nc(-c3ccc(C(O)c4ccccc4Cl)cc3)c12 (stereo not shown) [Compound 63] |
| 5 to 20 | Nc1ccccc1C(=O)c1ccc(-c2nc(C3CCC(CO)OC3)n3ccnc(N)c23)cc1 (stereo not shown) [Compound 65] |
| 20 to 100 | Nc1nccn2c(C3CCC(CO)OC3)nc(-c3ccc(C(=O)c4ccccc4O)cc3)c12 (stereo not shown) [Compound 66] |
| 100 to 1000 | CNc1ccccc1C(=O)c1ccc(-c2nc(C3CCC(CO)OC3)n3ccnc(N)c23)cc1 (stereo not shown) [Compound 67] |
| 20 to 100 | Nc1nccn2c(C3CCC(CO)OC3)nc(-c3ccc(C(=O)Nc4ccc(Cl)cn4)cc3)c12 (stereo not shown) [Compound 68] |
| 20 to 100 | Nc1nccn2c(C3CCC(CO)OC3)nc(-c3ccc(C(=O)Nc4ccc(F)cn4)cc3)c12 (stereo not shown) [Compound 69] |
| 20 to 100 | Nc1cccc(NC(=O)c2ccc(-c3nc(C4CCC(CO)OC4)n4ccnc(N)c34)cc2)n1 (stereo not shown) [Compound 71] |
| 100 to 1000 | Nc1nccn2c(C3CCC(CO)OC3)nc(-c3ccc(C(=O)Nc4cccc(Br)n4)cc3)c12 (stereo not shown) [Compound 72] |
| 100 to 1000 | Nc1nccn2c(C3CCC(CO)OC3)nc(-c3ccc(C(=O)Nc4ccc(C(F)(F)F)cn4)cc3)c12 (stereo not shown) [Compound 73] |
| > 1000 | COCCOc1ccc(-c2nc(C3CCC(CO)OC3)n3ccnc(N)c23)cc1 (stereo not shown) [Compound 74] |
| 5 to 20 | Nc1nccn2c(C3CCC(CO)OC3)nc(-c3ccc(Oc4cccc(OC(F)F)c4F)cc3)c12 (stereo not shown) [Compound 75] |
| 100 to 1000 | COc1c(F)cccc1Oc1ccc(-c2nc(C3CCC(CO)OC3)n3ccnc(N)c23)cc1 (stereo not shown) [Compound 76] |
| 20 to 100 | Cc1ccc(Oc2ccc(-c3nc(C4CCC(CO)OC4)n4ccnc(N)c34)cc2)c(F)c1 (stereo not shown) [Compound 77] |
| 20 to 100 | Cc1ccc(Oc2ccc(-c3nc(C4CCC(CO)OC4)n4ccnc(N)c34)cc2)cc1 (stereo not shown) [Compound 78] |
| > 1000 | COc1cccc(NC(=O)c2ccc(-c3nc(C4CCC(CO)OC4)n4ccnc(N)c34)cc2)c1F (stereo not shown) [Compound 79] |
| > 1000 | Nc1nccn2c(C3CCC(CO)OC3)nc(-c3cnc(Oc4cccc(Cl)c4)nc3)c12 (stereo not shown) [Compound 81] |
| 20 to 100 | COc1cccc(Oc2ccc(-c3nc(C4COC5C(O)COC45)n4ccnc(N)c34)cc2)c1F (stereo not shown) [Compound 82] |
| 100 to 1000 | Nc1nccn2c(C3COC4C(O)COC34)nc(-c3ccc(C(=O)Nc4ccccn4)cc3)c12 (stereo not shown) [Compound 83] |
| 20 to 100 | Nc1nccn2c(C3CCC(CO)OC3)nc(-c3ccc(Oc4ccc5c(c4F)OCC5)cc3)c12 (stereo not shown) [Compound 84] |
| 100 to 1000 | Nc1nccn2c(C3CCC(CO)OC3)nc(-c3ccc(Oc4ccc5c(c4F)OCO5)cc3)c12 (stereo not shown) [Compound 85] |
